Laboratory results: US6794398B1, “Preventive/remedies for liver diseases” (Mitsubishi Pharma Corporation, priority 1999, dated 2004)

Columns and labels:
[1] = tested on: Hepatic stellate cells (HSC); assay: Effect on cell morphology of hepatic stellate cell; format: cell-based, rat; settings: Y-27632 30 μM, DMEM with 1% FCS, one hour, phase contrast microscope
Method: Hepatic stellate cells (HSC) were prepared from the liver of male Wistar rat according to the method of Friedman et al (Friedman S. L, et al., Proc Natl Acad Sci USA 1985; 82: 8681-8685). HSC were cultured in Dulbecco's modified Eagle's medium (DMEM) containing 20% fetal calf serum (FCS) and the cells after 3 to 8 passages were used. HSC to be subjected to the experiment were sown in a dish treated with fibronectin (10 μg/ml), cultured in DMEM medium containing 20% FCS for 24 hours and changed to DMEM medium containing 1% FCS or DMEM medium containing Y-27632 (30 μM) and 1% FCS. One hour later, HSC were fixed with a 3.7% formaldehyde solution and observed under a phase contrast microscope.

[2] = tested on: Hepatic stellate cells (HSC); assay: Effect on production of collagen I in hepatic stellate cells (ELISA); format: cell-based, rat; settings: Y-27632 30 μM, DMEM without FCS, 48 hours of culture, n=4
Method: In the same manner as in Experimental Example 1, HSC were prepared from rat liver and cultured in DMEM medium containing 20% FCS for 8 days and changed to DMEM medium without FCS or DMEM medium containing Y-27632 (30 μM) but without FCS. After 48 hours of culture, the amount of collagen I contained in the supernatant was measured by ELISA (enzyme-linked immunosorbent assay) (Moshage H, et al., Hepatology 1990; 12: 511-518). As a result, the amount was 19.5±3.0 μg/μg DNA for the group without Y-27632 and 8.2±2.3 μg/μg DNA for the group with the addition of Y-27632, showing a significant low level for the group with the addition of Y-27632 (p<0.01, n=4).

[3] = tested on: rat with hepatic fibrosis induced by dimethylnitrosamine; assay: Effect on rat with hepatic fibrosis induced by dimethylnitrosamine; format: in vivo; settings: 30 mg/kg orally every day for 4 weeks, male Wistar rats, liver, 5 rats
Method: 1% Dimethylnitrosamine (100 μl/100 g rat body weight) was intraperitoneally administered to male Wistar rats for 3 consecutive days per week for 4 weeks (12 times in total) to prepare a hepatic fibrosis model rat. To the Y-27632 administration group, Y-27632 (30 mg/kg) was orally administered every day for 4 weeks from the day when the dimethylnitrosamine administration was started. To the control group, physiological saline was administered. Four weeks later, the liver was removed and the level of fibrogenesis of the tissue, collagen content and hydroxyproline amount were measured.
The level of fibrogenesis was measured as follows. A part of the removed liver was fixed with a formalin solution overnight, and a paraffin embedded piece was prepared and stained by Masson trichrome stain. The stained images were input in a computer through a digital camera (Fujix HC-1000, Fuji Film, Tokyo, Japan) and, using a computer-assisted morphometric analyzer (MacScope, Mitani corporation, Fukui, Japan), the area ratio of the collagen portion stained in bright green was determined as the degree of fibrogenesis.
The amout of tissue collagen was measured as follows according to the method of Shiba et al. (Shiba M, et al. Liver, 1998, Jun; 18(3): 196-204). That is, a part of the removed liver was homogenized with a 33-fold amount (ml/g) of 0.5M aqueous acetic acid solution in a Polytron PCU-2 homogenizer (Kinematica, Luzern, Switzerland). The homogenate was subjected to ultrasonication treatment for 2 min after freeze-thawing. After extraction with an acid, a fraction containing insoluble collagen was heated at 80° C. for 60 minutes to convert the insoluble collagen to water-soluble gelatin. The amount of gelatin was measured with a Sircol collagen assay kit (Biocolor, Belfast, Northern Ireland).
The amount of hydroxyproline was measured as follows. […] The amount of hydroxyproline was measured according to the method of Fujiwara et al. (Fujiwara et al., Anal. Biochem., 1987; 166: 72-8) with a high performance liquid chromatography system (SRL Inc., Tachikawa, Japan).

C[C@@H](N)[C@H]1CC[C@H](C(=O)Nc2ccncc2)CC1 [Compound Y-27632, (+)-trans-4-(1-aminoethyl)-1-(4-pyridylcarbamoyl)cyclohexane 2HCl·H2O]
cell morphology of hepatic stellate cells [1]: spindle-like shape with dendroidal protrusions (non-active type) | amount of collagen I contained in the supernatant [2]: 8.2±2.3 μg/μg DNA | content of collagen in the tissue [3]: 601.3±67.7 μg/100 mg-rat liver weight | content of hydroxyproline in the tissue [3]: 29.8±9.1 μmol/g-rat liver weight | level of fibrogenesis (area ratio of collagen portion, Masson trichrome stain) [3]: 6.3±0.7%
